What was measured:
[1] = TK assay, intravenous mixture dosing: serum concentrations and noncompartmental analysis (sparse data)
Method in brief: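 Female New Zealand white rabbits received a compound mixture IV via ear-vein catheter; serum sampled sparsely (3 rabbits/time point) from 15 min to 28 d. Noncompartmental sparse-data analysis on mean profiles: linear-trapezoidal AUC, CL as dose/AUC0−inf, half-life from λZ, MRT and VSS.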

[2] = TK assay, oral mixture dosing: serum concentrations and noncompartmental analysis (sparse data)
Method in brief: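 Female New Zealand white rabbits (10-wk, 2.37±0.14kg) got the compound mixture IV via ear-vein catheter or orally into the mouth; serum sampled 15 min to 28 d, 3 (or 6 at 30 min) rabbits per time. Sparse-data noncompartmental analysis gave AUC (linear trapezoidal), CL or CL_F, half-life and F.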

[3] = Chronic exposure: daily oral mixture for 17 wk, steady-state serum concentrations
Protocol: The objective of this preliminary experiment was to check the ability of our approach to determine the loading and maintenance doses of the eight compounds to be administered simultaneously by oral route to reproduce in female rabbits targeted serum concentrations. The experiment was carried out on thirty-two 2-wk old female New Zealand white rabbits (INRA 1777 line) randomly allocated to a treatment and control groups of 16 rabbits weighing 309±45g and 298±62g , respectively. The treated rabbits were orally administrated a mixture of the eight compounds at a dosage corresponding to the sum of the loading and daily maintenance doses followed by daily administrations of the maintenance dose for 17 wk (see the “Estimation of the doses” section). The control group was orally administrated the vehicle for the same duration.
The volume of the maintenance dosing solution ( 1mL/kg ) was weekly adjusted to the mean BW estimated from the known pattern of growth of the INRA 1777 rabbit line. Oral dosing and antemortem blood sampling were performed as previously described.
Blood samples were left to clot for about 20–30 min at ambient temperature and centrifuged for 20 min at 3,000×g at 25°C. The separated serum was stored in glass tubes at −20°C until assayed.

[4] = oral mixture dosing, NCA, n=12, MEHP after oral DEHP
[5] = female, New Zealand white (INRA 1777 line), rabbit, in vivo, iv
[6] = female, New Zealand white, rabbit, in vivo, iv, Serum concentration
[7] = female, New Zealand white (INRA 1777 line), rabbit, in vivo, po
[8] = female, New Zealand white (INRA 1777 line), rabbit, in vivo, po, Serum concentration
[9] = female, New Zealand white, rabbit, in vivo, po, Serum concentration

## O=S(=O)(c1ccc(O)cc1)c1ccc(O)cc1 [BPS, bisphenol S]
[1]; IV mixture dosing, NCA, n=12
  CL: 72.5 mL/min/kg
  MRT: 0.0525 days
[1]; IV, rabbit 1, 0.30 h
  Serum concentration: 2080 nM
[1]; IV, rabbit 1, 4.38 h
  Serum concentration: 25 nM
[1]; IV, rabbit 1, 24.03 h
  Serum concentration: < 4 nM
[1]; IV, rabbit 2, 0.28 h
  Serum concentration: 4060 nM
[1]; IV, rabbit 2, 4.05 h
  Serum concentration: 29 nM
[1]; IV, rabbit 3, 0.35 h
  Serum concentration: 3380 nM
[1]; IV, rabbit 3, 4.05 h
  Serum concentration: 65 nM
[1]; IV, rabbit 4, 0.62 h
  Serum concentration: 1030 nM
[1]; IV, rabbit 4, 8.33 h
  Serum concentration: 22 nM
[1]; IV, rabbit 4, 72.00 h
  Serum concentration: < 4 nM
[1]; IV, rabbit 5, 0.75 h
  Serum concentration: 1230 nM
[1]; IV, rabbit 5, 8.62 h
  Serum concentration: 15 nM
[1]; IV, rabbit 5, 72.03 h
  Serum concentration: < 4 nM
[1]; IV, rabbit 6, 0.57 h
  Serum concentration: 1840 nM
[1]; IV, rabbit 6, 7.98 h
  Serum concentration: 22 nM
[1]; IV, rabbit 6, 71.97 h
  Serum concentration: < 4 nM
[1]; IV, rabbit 7, 1.13 h
  Serum concentration: 370 nM
[1]; IV, rabbit 7, 11.98 h
  Serum concentration: 8.5 nM
[1]; IV, rabbit 8, 1.12 h
  Serum concentration: 290 nM
[1]; IV, rabbit 8, 12.02 h
  Serum concentration: 6 nM
[1]; IV, rabbit 9, 1.03 h
  Serum concentration: 410 nM
[1]; IV, rabbit 9, 11.97 h
  Serum concentration: 7.4 nM
[1]; IV, rabbit 11, 2.08 h
  Serum concentration: 110 nM
[1]; IV, rabbit 12, 2.08 h
  Serum concentration: 200 nM
[1]; serum, IV mixture dosing, NCA, n=12
  AUC0−inf: 2.41 µM·h
[1]; serum, IV mixture dosing, NCA, n=12, doses in Table 2 r3, BPSG after BPS dosing
  Cmax: 4060 nM
[2]; [4]
  MRT: 0.272 days
  Tmax: 0.00958 days
[2]; oral, rabbit 13, 4.30 h, MEHP after oral DEHP
  Serum concentration: 140 nM
[2]; oral, rabbit 14, 0.37 h, MEHP after oral DEHP
  Serum concentration: 1550 nM
[2]; oral, rabbit 14, 4.17 h, MEHP after oral DEHP
  Serum concentration: 130 nM
[2]; oral, rabbit 15, 4.05 h, MEHP after oral DEHP
  Serum concentration: 110 nM
[2]; oral, rabbit 15, 23.98 h, MEHP after oral DEHP
  Serum concentration: 12 nM
[2]; oral, rabbit 16, 0.55 h, MEHP after oral DEHP
  Serum concentration: 320 nM
[2]; oral, rabbit 16, 8.22 h, MEHP after oral DEHP
  Serum concentration: 50 nM
[2]; oral, rabbit 16, 72.00 h, MEHP after oral DEHP
  Serum concentration: < 4 nM
[2]; oral, rabbit 17, 0.53 h, MEHP after oral DEHP
  Serum concentration: 58 nM
[2]; oral, rabbit 17, 8.48 h, MEHP after oral DEHP
  Serum concentration: 121 nM
[2]; oral, rabbit 17, 72.00 h, MEHP after oral DEHP
  Serum concentration: < 4 nM
[2]; oral, rabbit 18, 0.55 h, MEHP after oral DEHP
  Serum concentration: 940 nM
[2]; oral, rabbit 18, 8.00 h, MEHP after oral DEHP
  Serum concentration: 49 nM
[2]; oral, rabbit 18, 71.96 h, MEHP after oral DEHP
  Serum concentration: < 4 nM
[2]; oral, rabbit 19, 1.02 h, MEHP after oral DEHP
  Serum concentration: 190 nM
[2]; oral, rabbit 19, 12.00 h, MEHP after oral DEHP
  Serum concentration: 87 nM
[2]; oral, rabbit 20, 1.07 h, MEHP after oral DEHP
  Serum concentration: 150 nM
[2]; oral, rabbit 20, 12.00 h, MEHP after oral DEHP
  Serum concentration: 51 nM
[2]; oral, rabbit 21, 1.08 h, MEHP after oral DEHP
  Serum concentration: 97 nM
[2]; oral, rabbit 21, 12.00 h, MEHP after oral DEHP
  Serum concentration: 100 nM
[2]; oral, rabbit 22, 2.00 h, MEHP after oral DEHP
  Serum concentration: 120 nM
[2]; oral, rabbit 23, 2.00 h, MEHP after oral DEHP
  Serum concentration: 88 nM
[2]; oral, rabbit 24, 2.22 h, MEHP after oral DEHP
  Serum concentration: 110 nM
[2]; serum, oral mixture dosing, NCA, n=12, MEHP after oral DEHP
  AUC0−inf: 3.38 µM·h
[2]; serum, oral mixture dosing, NCA, n=12, doses in Table 3 r3, MEHP measured after oral DEHP, BPSG after BPS
  Cmax: 6930 nM
[3]; estimated from total BPS and 7% unconjugated fraction, targeted CSS 1 ng/mL
  Mean serum concentration of (unconjugated) BPS, estimated: 0.98 ng/mL

## Clc1c(Cl)c(Cl)c(Cl)c(Cl)c1Cl [HCB, hexachlorobenzene]
[1]; [5]
  AUC(0-inf): 4.52 µM·h
  Cmax: 19 nM
  MRT: 23 days
  clearance: 0.85 mL/min/kg
  half-life: 17.2 days
[1]; female, New Zealand white (INRA 1777 line), rabbit, in vivo, iv, VSS
  Vd: 28.1 L/kg
[1]; female, New Zealand white (INRA 1777 line), rabbit, in vivo, iv, VZ
  Vd: 30.5 L/kg
[1]; female, New Zealand white, rabbit, in vivo, iv, 24 h
  Serum concentration: 7.1 nM
[1]; female, New Zealand white, rabbit, in vivo, iv, 168 h
  Serum concentration: 6.4 nM
[1]; [6]
  concentration at 0.6 h: 11 nM
  concentration at 0.67 h: 19 nM
  concentration at 0.77 h: 15 nM
  concentration at 24 h: 8.2 nM
  concentration at 24.03 h: 6.1 nM
  concentration at 71.97 h: 4.2 nM
  concentration at 72 h: 5.8 nM
  concentration at 72.03 h: 6.5 nM
  concentration at 167.92 h: 4.1 nM
  concentration at 168 h: 5.2 nM
  concentration at 671.83 h: 2.7 nM
  concentration at 671.96 h: 2.3 nM
[2]; [7]
  AUC(0-inf): 340 µM·h
  CL/F: 1.33 mL/min/kg
  Cmax: 505 nM
  MRT: 46.5 days
  Tmax: 1 days
  Vd/F: 95 L/kg
  bioavailability: 64%
  half-life: 34 days
[2]; female, New Zealand white (INRA 1777 line), rabbit, in vivo, po, 24 h
  Serum concentration: 370 nM
[2]; [8]
  concentration at 0.57 h: 66 nM
  concentration at 23.98 h: 370 nM
  concentration at 24 h: 640 nM
  concentration at 168 h: 290 nM
  concentration at 671.96 h: 160 nM
[2]; female, New Zealand white, rabbit, in vivo, po, 72 h
  Serum concentration: 400 nM
[2]; [9]
  concentration at 71.96 h: 490 nM
  concentration at 72 h: 220 nM
  concentration at 168 h: 240 nM
  concentration at 168.02 h: 240 nM
[3]; [7]
  concentration at 17 wk: 2.9 ± 1.5 ng/mL
